# Assay results: PubChem BioAssay AID2060888 (Molecular Pharmacology Branch, DTP, NCI, 2025)
# pIC50: −log10 of the molar value.
# Tested on: 695427-040-R-J1-PDC complex spheroid viability
# Assay: Anticancer human tumor 695427-040-R-J1-PDC patient-derived colon adenocarcinoma cell line growth inhibition [RAS]
# Details: for pIC50: curve of first compound; for viability, T/C: stronger effect = lower value
# From the text: RAS pathway inhibitors in Combinations in Complex Spheroids
# A high-throughput screen of multi-cell type tumor spheroids was designed to identify active combinations of RAS pathway inhibitors and targeted small molecules. Complex spheroids include a stromal component modeled by human endothelial cells (HUVEC) and fibroblasts modeled by human mesenchymal stem cells (MSCs). The concentration ranges selected for each drug and investigational agent were based upon clinically achievable concentrations if the clinical Cmax of the agent was known.
# Compounds. The drugs and investigational agents: abemaciclib (NSC768073), cobimetinib (NSC768068), divarasib (GDC6063, NSC841802), docetaxel (NSC628503), GDC-1971 (RLY-1971, NSC841576), gemcitabine (NSC613327), inavolisib (NSC800729), ipatasertib (NSC767898), KB-0742 (NSC834161), MRTX-1133 (NSC836407), osimertinib (NSC779217), RMC-4630 (NSC839698), RMC-6236 (NSC851965), RMC-6291 (NSC852671), Ro-3306 (NSC812927), sapanisertib (NSC764658), SN-38 (NSC673596), staurosporine (NSC755774), SY5609 (NSC837396), and tovorafenib (DAY101, NSC766906), were obtained from the National Cancer Institute (NCI) Developmental Therapeutics Program Chemical Repository. The FDA-approved anticancer drug set is available from the NCI Developmental Therapeutics Program. […] The stock solutions were prepared in dimethyl sulfoxide (DMSO, Sigma-Aldrich, St. Louis, MO, cat. D2650) at 800-fold the tested concentration and stored at -70 degrees C prior to their use. All drugs and investigational agents were tested over a range starting from a high concentration at or near the clinical Cmax and decreasing in half-log increments. If the clinical Cmax for an agent had not been determined, the highest concentration tested was 10 microM.
# Cell Culture. All cells were maintained in an incubator at 37 degrees C and 5% CO2 with 95% humidity. The PDC lines were cultured according to standard operating procedures established by the NCI PDMR. All PDCs were thawed and cultured in Matrigel-coated flasks prepared with a working solution of 1X Ham's F-12 nutrient mix, without supplementation (Invitrogen, Waltham, MA, cat. 11765054), 100 U/mL penicillin-streptomycin (Invitrogen, cat. 15140122), and 2.5% Matrigel (Corning Inc., Corning, NY, cat. 354248) for the first three passages. The 362531-283-R-J2-PDC and 782815-120-R-J1-PDC lines were cultured in 6C/Colon 1B media, which includes advanced DMEM/F-12 (Thermo Fisher Scientific, cat. 12634028), 10 mM HEPES (Thermo Fisher Scientific, cat. 15630080), 1X GlutaMAX supplement (Thermo Fisher Scientific, cat. 35050061), 0.1 mg/mL primocin (InvivoGen, San Diego, CA, cat. ant-pm-2), 10% defined fetal bovine serum, heat inactivated (HyClone Laboratories Inc., Logan, UT, cat. SH30070.03HI), 50% L-WRN conditioned media (ATCC, cat. CRL-3276), 1.25 mM N-Acetyl-L-cysteine (Sigma-Aldrich, cat. A9165), 10 mM nicotinamide (Sigma-Aldrich, cat. N0636), 1X B-27 supplement (Thermo Fisher Scientific, cat. 17504044), 1X N-2 supplement (Thermo Fisher Scientific, cat. 17502048), 50 ng/mL human EGF (Thermo Fisher Scientific, cat. PHG0311), and 10 microM Y-27632 dihydrochloride (Tocris Bioscience, cat. 1254). The K12877-001-R-J1-PDC line was cultured in 6I media, which includes all 6C/Colon 1B media plus 10 ng/mL human FGF-10 (PeproTech, cat. 100-26), 1 ng/mL human FGF-2 (PeproTech, cat. 100-18B), 1 µM prostaglandin E2 (Tocris Bioscience, cat. 2296), […] hydrocortisone (Sigma-Aldrich, cat. H4001), and […] bovine insulin (Sigma-Aldrich, cat. I6634). The K86415-001-R-J1-PDC line was cultured in 6D media, which includes all 6C/Colon 1B media components minus the L-WRN conditioned media. The 485176-168-R4-J1-PDC was cultured in PANC media, which includes all 6C/Colon 1B media plus 100 ng/mL human FGF-10 (PeproTech, cat. 100-26), 500 nM SB-431542 (Selleckchem, cat. S1067), and 10 nM gastrin (Tocris Bioscience, cat. 3006). […]
# [1] = second compound 0.0316 µM, first compound 0.0316 µM
# [2] = second compound 0.0316 µM, first compound 0.1 µM
# [3] = second compound 0.0316 µM, first compound 0.316 µM
# [4] = second compound 0.0316 µM, first compound 1 µM
# [5] = second compound 0.1 µM, first compound 0.0316 µM
# [6] = second compound 0.1 µM, first compound 0.1 µM
# [7] = second compound 0.1 µM, first compound 0.316 µM
# [8] = second compound 0.1 µM, first compound 1 µM
# [9] = second compound 0.316 µM, first compound 0.0316 µM
# [10] = second compound 0.316 µM, first compound 0.1 µM
# [11] = second compound 0.316 µM, first compound 0.316 µM
# [12] = second compound 0.316 µM, first compound 1 µM
# [13] = second compound 1 µM, first compound 0.0316 µM
# [14] = second compound 1 µM, first compound 0.1 µM
# [15] = second compound 1 µM, first compound 0.316 µM
# [16] = second compound 1 µM, first compound 1 µM
# [17] = second compound 3.16 µM, first compound 0.0316 µM
# [18] = second compound 3.16 µM, first compound 0.1 µM
# [19] = second compound 3.16 µM, first compound 0.316 µM
# [20] = second compound 3.16 µM, first compound 1 µM
# [21] = second compound 10 µM, first compound 0.0316 µM
# [22] = second compound 10 µM, first compound 0.1 µM
# [23] = second compound 10 µM, first compound 0.316 µM
# [24] = second compound 10 µM, first compound 1 µM
# 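Further: viability read after seven days of drug exposure.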
# 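Wherever viability, T/C is given: 100% = DMSO vehicle control viability.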
structure (smiles),measurement,setting,value
CC(Nc1ccc2c(c1)OCCn1cc(N3C(=O)OCC3C(F)F)nc1-2)C(N)=O (centres undefined) + C#Cc1c(F)ccc2cc(O)cc(-c3ncc4c(N5CC6CCC(C5)N6)nc(OCC56CCCN5CC(F)C6)nc4c3F)c12,pIC50,second compound 0.0316 µM,5.81
same,pIC50,second compound 0.1 µM,6.03
same,pIC50,second compound 0.316 µM,6.37
same,pIC50,second compound 1 µM,6.77
same,pIC50,second compound 3.16 µM,> 7.50
same,pIC50,second compound 10 µM,> 7.50
same,"viability, T/C",[1],78.2%
same,"viability, T/C",[2],69.5%
same,"viability, T/C",[3],58.5%
same,"viability, T/C",[4],52.1%
same,"viability, T/C","second compound 0.0316 µM, first compound 3.16 µM",47.9%
same,"viability, T/C","second compound 0.0316 µM, first compound 10 µM",40.1%
same,"viability, T/C",[5],77%
same,"viability, T/C",[6],69.7%
same,"viability, T/C",[7],59.6%
same,"viability, T/C",[8],49.9%
same,"viability, T/C","second compound 0.1 µM, first compound 3.16 µM",40.4%
same,"viability, T/C","second compound 0.1 µM, first compound 10 µM",35.4%
same,"viability, T/C",[9],76.7%
same,"viability, T/C",[10],67.1%
same,"viability, T/C",[11],52%
same,"viability, T/C",[12],39.9%
same,"viability, T/C","second compound 0.316 µM, first compound 3.16 µM",40.5%
same,"viability, T/C","second compound 0.316 µM, first compound 10 µM",30.3%
same,"viability, T/C",[13],63.1%
same,"viability, T/C",[14],54%
same,"viability, T/C",[15],45.9%
same,"viability, T/C",[16],34.8%
same,"viability, T/C","second compound 1 µM, first compound 3.16 µM",31.9%
same,"viability, T/C","second compound 1 µM, first compound 10 µM",23.1%
same,"viability, T/C",[17],47.4%
same,"viability, T/C",[18],38.3%
same,"viability, T/C",[19],30.3%
same,"viability, T/C",[20],23.9%
same,"viability, T/C","second compound 3.16 µM, first compound 3.16 µM",22%
same,"viability, T/C","second compound 3.16 µM, first compound 10 µM",16.9%
same,"viability, T/C",[21],33.8%
same,"viability, T/C",[22],22.1%
same,"viability, T/C",[23],17.1%
same,"viability, T/C",[24],13.6%
same,"viability, T/C","second compound 10 µM, first compound 3.16 µM",12%
same,"viability, T/C","second compound 10 µM, first compound 10 µM",10.9%
O=C(c1ccc(F)c(F)c1Nc1ccc(I)cc1F)N1CC(O)([C@@H]2CCCCN2)C1 + C#Cc1c(F)ccc2cc(O)cc(-c3ncc4c(N5CC6CCC(C5)N6)nc(OCC56CCCN5CC(F)C6)nc4c3F)c12,pIC50,second compound 0.0316 µM,7.39
same,pIC50,second compound 0.1 µM,7.50
same,pIC50,second compound 0.316 µM,7.50
same,pIC50,second compound 1 µM,7.75
same,pIC50,second compound 3.16 µM,8.43
same,pIC50,second compound 10 µM,> 8.50
same,"viability, T/C","second compound 0.0316 µM, first compound 0.00316 µM",93.3%
same,"viability, T/C","second compound 0.0316 µM, first compound 0.01 µM",77%
same,"viability, T/C",[1],55.7%
same,"viability, T/C",[2],30.5%
same,"viability, T/C",[3],15.2%
same,"viability, T/C",[4],2.92%
same,"viability, T/C","second compound 0.1 µM, first compound 0.00316 µM",92.1%
same,"viability, T/C","second compound 0.1 µM, first compound 0.01 µM",65.7%
same,"viability, T/C",[5],53.8%
same,"viability, T/C",[6],30.9%
same,"viability, T/C",[7],15.7%
same,"viability, T/C",[8],2.78%
same,"viability, T/C","second compound 0.316 µM, first compound 0.00316 µM",82.9%
same,"viability, T/C","second compound 0.316 µM, first compound 0.01 µM",65.5%
same,"viability, T/C",[9],52.6%
same,"viability, T/C",[10],29.9%
same,"viability, T/C",[11],17%
same,"viability, T/C",[12],4.73%
same,"viability, T/C","second compound 1 µM, first compound 0.00316 µM",59.1%
same,"viability, T/C","second compound 1 µM, first compound 0.01 µM",53.4%
same,"viability, T/C",[13],47%
same,"viability, T/C",[14],23.4%
same,"viability, T/C",[15],12.8%
same,"viability, T/C",[16],3.39%
same,"viability, T/C","second compound 3.16 µM, first compound 0.00316 µM",52.2%
same,"viability, T/C","second compound 3.16 µM, first compound 0.01 µM",38.5%
same,"viability, T/C",[17],23.7%
same,"viability, T/C",[18],19.6%
same,"viability, T/C",[19],8.05%
same,"viability, T/C",[20],2.3%
same,"viability, T/C","second compound 10 µM, first compound 0.00316 µM",30.1%
same,"viability, T/C","second compound 10 µM, first compound 0.01 µM",32.8%
same,"viability, T/C",[21],22.5%
same,"viability, T/C",[22],11.1%
same,"viability, T/C",[23],2.72%
same,"viability, T/C",[24],1.31%
